≈ marks a conversion by molar mass, not a printed value. Where “and” joins values, the source holds several entries; their conditions need not be identical. Equal values may be shown once. Entries after “also recorded” stand apart in the source; their conditions may differ. Read-outs that look alike come from different tables or passages of the source.

The target in data set [1] is T1, rat sEH (Rattus norvegicus, UniProt P80299).
T1 construct: made in house; host or cells: insect High Five cells (recombinant baculovirus)
T1 sequence (P80299 1-554): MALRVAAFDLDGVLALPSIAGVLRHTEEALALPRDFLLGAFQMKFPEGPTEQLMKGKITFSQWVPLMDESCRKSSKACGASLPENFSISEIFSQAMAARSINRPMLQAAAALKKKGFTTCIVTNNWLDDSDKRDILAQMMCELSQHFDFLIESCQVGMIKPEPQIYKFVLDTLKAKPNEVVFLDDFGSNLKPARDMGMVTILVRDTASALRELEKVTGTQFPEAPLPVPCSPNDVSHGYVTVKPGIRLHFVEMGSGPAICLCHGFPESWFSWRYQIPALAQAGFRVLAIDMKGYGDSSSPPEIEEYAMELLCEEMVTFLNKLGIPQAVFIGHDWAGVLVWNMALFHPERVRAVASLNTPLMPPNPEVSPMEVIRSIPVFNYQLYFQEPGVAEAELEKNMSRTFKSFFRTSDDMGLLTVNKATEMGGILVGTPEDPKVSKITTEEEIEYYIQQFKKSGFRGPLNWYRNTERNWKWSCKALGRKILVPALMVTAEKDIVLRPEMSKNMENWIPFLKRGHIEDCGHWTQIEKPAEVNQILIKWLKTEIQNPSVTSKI
Description: sEH inhibition by fluorescent assay (CMNPC assay), rat enzyme. It counts as biochemical. Particulars: for IC50: CMNPC substrate, recombinant enzyme. The method, then: (§1) Recombinant sEH was produced in insect High Five cells using recombinant baculovirus expression vectors, and purified by affinity chromatography as reported previously. The enzyme appeared as a single band (0.3 μg loading) with an estimated purity of more than 95% by Coomassie Brilliant Blue staining following SDS-PAGE separation. The final recombinant sEH preparations had no esterase or glutathione S-transferase activities, which interfere with the CMNPC assay as described below.
(§2) IC50 values were determined as described previously using cyano (2-methoxynaphthalen-6-yl) methyl trans-(3-phenyl-oxyran-2-yl) methyl carbonate (CMNPC) as a fluorescent substrate. Recombinant sEH (0.96 nM) was incubated with inhibitors for 5 min in 25 mM bis-Tris/HCl buffer (pH 7.0) containing 0.1 mg/mL of BSA at 30°C prior to substrate introduction ([S] = 5 μM). Activity was measured by determining the appearance of the 6-methoxy-2-naphthaldehyde with an excitation wavelength of 330 nm and an emission wavelength of 465 nm for 10 min.

The target in the next data set is T2, human sEH (Homo sapiens, UniProt P34913).
T2 construct: made in house; host or cells: insect High Five cells (recombinant baculovirus)
T2 sequence (P34913 1-555): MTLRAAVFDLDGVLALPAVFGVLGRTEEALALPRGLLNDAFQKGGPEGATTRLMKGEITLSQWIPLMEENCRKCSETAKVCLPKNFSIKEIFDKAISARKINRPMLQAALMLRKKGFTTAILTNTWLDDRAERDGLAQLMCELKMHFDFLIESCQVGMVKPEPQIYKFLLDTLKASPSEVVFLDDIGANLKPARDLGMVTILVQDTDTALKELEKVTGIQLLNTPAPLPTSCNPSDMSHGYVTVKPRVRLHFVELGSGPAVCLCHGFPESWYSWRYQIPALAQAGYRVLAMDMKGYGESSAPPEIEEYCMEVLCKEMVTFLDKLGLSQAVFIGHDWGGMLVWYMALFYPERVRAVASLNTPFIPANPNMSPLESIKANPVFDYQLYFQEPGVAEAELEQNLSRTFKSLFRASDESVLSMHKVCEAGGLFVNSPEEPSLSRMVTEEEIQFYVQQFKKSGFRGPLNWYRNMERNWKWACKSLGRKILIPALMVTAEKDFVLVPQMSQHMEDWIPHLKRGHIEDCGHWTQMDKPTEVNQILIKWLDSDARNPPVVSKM
Description: sEH inhibition by fluorescent assay (CMNPC assay), human enzyme. It counts as biochemical. How it is done:
as §1, §2

For data set [2], the system named is carrageenan-induced inflammatory pain. Description: Nociceptive assay, carrageenan-induced inflammatory pain model, topical application. It is filed as in vivo. Particulars: rat, 6 mg/paw in PEG400/Vanicream, monitored 4 h, p ≤ 0.001. How it is done:
(§3) Male Sprague-Dawley rats weighing 225–250 g were obtained from Charles River Laboratories and maintained in the UC Davis animal housing facility with ad libitum water and food on a 12 h/12 h light-dark cycle. Behavioral nociceptive testing was conducted by assessing mechanical withdrawal threshold using an electronic von Frey anesthesiometer apparatus (IITC, Woodland Hills, CA) as described previously. The analgesic effect of compound 3 was tested using the intraplantar carrageenan-induced local inflammatory pain model. Following baseline measurements, carrageenan (50 μL, 1% solution of carrageenan in ddH2O) was administered into the plantar area of one hind paw. At 4 h post administration of carrageenan, responses were measured, and immediately after these measurement, 3 (3% in PEG400/Vanicream™ (Pharmaceutical Specialties, Inc. Rochester, MN) = 3:7, 6 mg of compound/paw), the synthetic sEH inhibitor triclocarban (TCC, 3%), or the vehicle (200 μL of PEG400/Vanicream™) was administered onto the inflamed paw by topical application. The cream was thoroughly massaged across the entire hind paw surface over a 1–2 min period. Subsequently, the ability of these treatments to reduce the carrageenan-induced inflammatory pain was monitored over the course of 4 h.
Data were analyzed using SigmaPlot 11.0 for Windows (Systat Software Inc., San Jose, CA). […]

Data set [3] shares this test system. Description: Carrageenan-induced inflammatory pain model, intraplantar administration. The note with it: rat, 10 µg/paw, p<0.05 vs. vehicle. It is filed as in vivo. The method, then: S8 Fig. Intraplantar administration of compound 3 effectively reduces carrageenan-induced inflammatory pain in rat. Administration of the inflammatory agent carrageenan (CAR) induces a stable hyperalgesic response for the duration of the experiment. Treatment with 3 (▲, 10 µg/paw, intraplantar), morphine (●, 10 µg/paw, intraplantar) or the potent synthetic sEH inhibitor (1-(1-(Cyclopropanecarbonyl) piperidin-4-yl)-3-(4- […]
pain levels (Kruskal-Wallis One Way ANOVA on Ranks, p≤0.001, Tukey’s post hoc test (compound 3 vs. vehicle, morphine vs. vehicle, TPCU vs. vehicle, p<0.05). Mean ± SE (n=6) of mechanical withdrawal threshold (% of naïve baseline) are shown. Vehicle (○), morphine (●), and TPCU (△) treatment data are from Rose et al., (2010).
(1 picture or pasted object on this page, not shown here)

The nature of data set [4]: Pharmacokinetics after oral gavage (cassette dosing). The note with it: mice; for oral availability, comparison: gavage, compound 3 and AEPU 10 mg/kg, TPPU 0.3 mg/kg; for blood level of demethoxy metabolite after oral compound 3: compound 3 10 mg/kg oral, LOQ < 9.8 nM in blood. It counts as in vivo. The method, then:
(§4) Pharmacokinetic profiles of the inhibitors were determined by following the procedure described previously in literature with some modifications. Male Swiss Webster mice (7 weeks old, 24–30 g) were purchased from Charles River Laboratories. Inhibitors were dissolved in polyethylene glycol (average molecular weight: 300) to give a clear solution for oral administration. […] Blood (10 μL) was collected from the tail vein using a pipet tip rinsed with EDTA. The blood samples were prepared according to the methods detailed previously, and blood samples were analyzed by LC-MS/MS.

The next data set in a line: Solubility. It counts as physicochemical.
The nature of data set [5]: Blood concentration during the pain assay after dermal treatment. Particulars: rat; for Concentration of demethoxy metabolite: after dermal treatment of compound 3 (6 mg/paw). It counts as in vivo. The method, then:
as §3, §4

The conditions of data set [6]: value marked with footnote c, text of footnote not shown; cited from earlier work.
Data set [7] addresses T1, rat sEH. Also on record: method as in PMID 21381656. Particulars: value marked with footnote e; cited from earlier work.
The subject of data set [8] is carrageenan-induced inflammatory pain. Also on record: method as in Rose et al., (2010). The note with it: rat, intraplantar, morphine 10 µg/paw, TPCU 10 ng/paw; ref Rose et al., (2010); cited from earlier work.
[9] abbreviates: CMNPC substrate, recombinant enzyme, read-out: Human sEH IC50.
Setting [10] is: S2 Table, unit inferred, read-out: hsEH IC50.

Regarding `COc1ccc(CNC(=O)NCc2ccccc2)cc1` [BMU, reference compound], the concentration for half-maximal inhibition (IC50) on rat sEH [1] is 182 nM.

For the molecule `O=C(NCc1ccccc1)NCc1ccccc1` [Compound 1, 1,3-Dibenzylurea], the IC50 on rat sEH [1] worked out at 385 nM.

On to `COc1cccc(CNC(=O)NCc2ccccc2)c1` [Compound 2, 1-Benzyl-3-(3-methoxybenzyl) urea], for which the results for the IC50 at rat sEH [1] and at human sEH (setting [9]) were 308 nM and 534 nM, respectively. The “lower potency on human sEH than compound 3” value on human sEH was “approximately 2 fold”.

As for `COc1cccc(CNC(=O)NCc2cccc(OC)c2)c1` [Compound 3, 1,3-Bis (3-methoxybenzyl) urea], the half-maximal inhibitory concentration (IC50) is 155 nM on rat sEH [1]; 222 nM and ~200 nM at human sEH (setting [9]). The “carrageenan induced inflammatory pain (mechanical withdrawal threshold)” value in [2] is listed as “significantly reduced carrageenan induced inflammatory pain; also recorded: significantly reduced pain levels”. Further, the “carrageenan-induced inflammatory pain (mechanical withdrawal threshold)” value (from here on “carrageenan-induced inflammatory pain”) in [3] is on record as “significantly reduced”. Besides, the “less potent than MMU” value on human sEH (human sEH) is on record as “approximately 2 fold”. Also, the “absorption following oral administration” value in data set [4] (10 mg/kg by gavage in PEG300) is on record as “rapidly absorbed”. The “oral availability, comparison” value in data set [4] is recorded as “higher than that of AEPU”. Also, the “portion of compound 3 metabolized into compound 6” value in data set [4] (oral 10 mg/kg, based on area under the curve values) is recorded as “approximately 66%”. Besides, in “Solubility”, the “solubility higher than MMU” value is “approximately 10 fold”. Further, the concentration at 4 h in data set [5] (male, Sprague-Dawley, whole blood, topical, dermal 6 mg/paw, after 4 hours) is over 3000 nM. Moreover, the “blood concentration at peak” value in data set [5] (dermal 6 mg/paw, at 30 min) is “higher than 40 μM”. Further, the permeability through skin entry in data set [5] (dermal 6 mg/paw, concluded from blood concentration) is on record as “high permeability through skin”.

For `COc1cccc(CNC(=O)NCc2cccc(O)c2)c1` [Compound 6, 1-(3-Hydroxybenzyl)-3-(3-methoxybenzyl) urea], the IC50 at rat sEH [1] and at human sEH (read-out: human sEH IC50) was 1300 nM each time. In [4], the “blood level of demethoxy metabolite after oral compound 3” value was “detected at similar concentrations to compound 3”. Also, the “Concentration of demethoxy metabolite” value in data set [5] is “below 200 nM”.

Consider `O=C(NCc1cccc(O)c1)NCc1cccc(O)c1` [Compound 7, 1,3-Bis(3-hydroxybenzyl)urea], for which the concentration for half-maximal inhibition (IC50) on rat sEH [1] was 9600 nM; on human sEH (setting [10]), 2700 nM. The “blood level of demethoxy metabolite after oral compound 3” value in [4] is on record as “not detected”. Moreover, the “Concentration of demethoxy metabolite” value in [5] was “below 200 nM”.

As for `O=C(NCCc1ccccc1)NCCc1ccccc1` [Compound 8, 1,3-Diphenethylurea], the 50% inhibitory concentration (IC50) on rat sEH [1] was determined as 71 nM; at human sEH (setting [10]) it was 233 nM. For the same molecule, the “sEH inhibitory potency in words” value on human sEH is on record as “moderate sEH inhibitory potency”. In the data set “Solubility”, this molecule gave a solubility of 33 ± 11 µM (≈ 8.86 µg/mL).

`S=C(NCCc1ccccc1)NCCc1ccccc1` [Compound 9, 1,3-Diphenethylthiourea]: the IC50 came out at 3300 nM on rat sEH [1], 2400 nM on human sEH (setting [9]) and 134 nM at human sEH (setting [10]).

`O=C(NCCc1ccccc1)NCCc1ccc(O)cc1` [Compound 10, 1-(4-Hydroxyphenethyl)-3-phenethylurea]: the IC50 at rat sEH [1] amounted to 129 nM; at human sEH (setting [9]), 134 nM; at human sEH (setting [10]), 71.6 nM. For the same molecule, the “sEH inhibitory potency in words” value at human sEH is reported as “slightly higher inhibitory potency on sEH than the parent”.

Regarding `COc1ccc(CNC(=O)NCc2ccc(OC)cc2)cc1` [MMU, reference compound], on rat sEH [1], the IC50 is 218 nM. Further, the solubility in data set [6] was 11 ± 2 µM (≈ 3.3 µg/mL).

`O=S(=O)(O)ON=C(CCc1ccccc1)SC1OC(CO)C(O)C(O)C1O` (stereo not drawn) [Phenethyl glucosinolate, reference compound]: the IC50 on rat sEH [1] and at human sEH (setting [9]) was over 10000 nM each time.

For the molecule `S=C=NCCc1ccccc1` [Phenethyl isothiocyanate, reference compound], the IC50 at rat sEH [1] and on human sEH (setting [9]) was over 10000 nM throughout.

For the molecule `O=C(Nc1ccc(Cl)cc1)Nc1ccc(Cl)c(Cl)c1` [TCC, triclocarban, reference compound], the “more potent than compound 3 on rat sEH” value at rat sEH [1] was “approximately 6 fold”. For the same molecule, the “carrageenan induced inflammatory pain (mechanical withdrawal threshold)” value in [2] is recorded as “significantly reduced carrageenan induced inflammatory pain; also recorded: significantly reduced pain levels”. Also, the half-maximal inhibitory concentration (IC50) on rat sEH [7] is 27 nM.

Consider `O=C(Nc1ccc(OC(F)(F)F)cc1)NC1CCN(C(=O)C2CC2)CC1` [TPCU, 1-(1-(Cyclopropanecarbonyl)piperidin-4-yl)-3-(4-(trifluoromethoxy)phenyl) urea], for which the “carrageenan-induced inflammatory pain” value in data set [8] was “significantly reduced”.

As for `CCC(=O)N1CCC(NC(=O)Nc2ccc(OC(F)(F)F)cc2)CC1` [TPPU, 1-trifluoromethoxyphenyl-3-(1-propionylpiperidin-4-yl) urea, reference compound], the “oral availability, comparison” value in [4] is “much higher bioavailability than compound 3”.

As for `CN1CC[C@]23c4c5ccc(O)c4O[C@H]2[C@@H](O)C=C[C@H]3[C@H]1C5` [morphine], the “carrageenan-induced inflammatory pain” value in data set [8] is “significantly reduced”.

(Values after article PMC5417501, “Occurrence of urea-based soluble epoxide hydrolase inhibitors from the plants in the order Brassicales” (PLoS ONE, 2017).)
